Reference: publication PMC10697071, “Bio-guided isolation of alpha-glucosidase inhibitory compounds from Vietnamese liverwort Marchantia polymorpha: in vitro and in silico studies” (RSC Advances, 2023)
“Also recorded” adds a separate entry of the source.

Assays:
yeast alpha-glucosidase = assay: Alpha-glucosidase inhibition assay; format: biochemical; details: for IC50: yeast alpha-glucosidase
Excerpt: Evaluation of the inhibitory activity of 1–12 against yeast alpha-glucosidase followed a previous procedure.[37]

alpha-glucosidase = assay: Kinetic study of alpha-glucosidase inhibition (Lineweaver–Burk plots); format: biochemical
Experimental: To examine the inhibition mechanism, activity at concentrations of 0, 3.61, 7.22, 14.44, and 28.88 μM of 2 was recorded. […] Increasing inhibitor concentrations cause a decrease in the Vmax of α-glucosidase.
The mechanisms of inhibition of alpha-glucosidase by 2 were determined by Lineweaver–Burk plots (Microsoft Excel 2010, Washington, USA), using methods similar to those reported in the literature.[40] Enzyme inhibition due to various concentrations of 2 was evaluated by monitoring the effects of different concentrations of the substrate. For Lineweaver–Burk double reciprocal plots 1/enzyme velocity (1/V) vs. 1/substrate concentration (1/[S]), the inhibition type was determined using various concentrations of pNPG (1 mM, 2 mM, and 4 mM) as a substrate in the presence of different concentrations of the test compound (0, 3.61, 7.22, 14.44, and 28.88 μM for 2). The experiments were carried out in three replicates. The mixtures were incubated at 37 °C, and the optical density was measured at 405 nm every 1 min for 30 min with the ELx800 Absorbance Microplate Reader (BioTek Instruments, Inc., Vermont, USA). The optimal concentrations of the tested compound were chosen based on the IC50 value. The inhibition constants were obtained graphically from secondary plots (Microsoft Excel 2010, Washington, USA).

Molecule: Oc1cc2cc(c1O)Oc1ccc(cc1)CCc1cccc(O)c1Oc1cccc(c1)CC2 [Compound 1, Marchantin A]
- IC50 (yeast alpha-glucosidase): 57.3 ± 1.9 µM

Molecule: Oc1cccc2c1Oc1cccc(c1)CCc1cc(c(O)c(O)c1Br)Oc1ccc(cc1)CC2 [Compound 1a, 5′-Bromomarchantin A]
- Alpha-glucosidase inhibition (in words) (yeast alpha-glucosidase; qualitative statement): weaker activity than the parent compound 1
- IC50 (yeast alpha-glucosidase): 151 ± 2.9 µM

Molecule: Oc1ccc2cc1Oc1ccc(cc1)CCc1ccc(c(O)c1)-c1c(O)cccc1CC2 [Compound 2, Isoriccardin C]
- IC50 (yeast alpha-glucosidase): 28.9 ± 0.2 µM
- Type of inhibition (alpha-glucosidase; Lineweaver–Burk plots, same Km, decreasing Vmax): non-competitive inhibitor; also recorded: non-competitive type
- Ki (alpha-glucosidase; pNPG substrate 1, 2, 4 mM, 37 °C, secondary plot of slope versus concentration, read-out: Ki (inhibition constant)): 67.1 ± 1.28 µM

Molecule: Oc1ccc2c(c1)CCc1ccc(cc1)Oc1cc(ccc1O)CCc1ccc-2c(O)c1 [Compound 3, Riccardin C]
- IC50 (yeast alpha-glucosidase): 42.2 ± 1.4 µM

Molecule: COC1Cc2cccc(c2)Oc2c(ccc(O)c2O)CCc2ccc(cc2)Oc2cc1cc(O)c2O (stereo not drawn) [Compound 4, Marchantin K]
- IC50 (yeast alpha-glucosidase): 131 ± 3 µM

Molecule: Oc1ccc(CCc2cccc(O)c2)cc1 [Compound 5, Lunularin]
- IC50 (yeast alpha-glucosidase): 130 ± 2 µM

Molecule: COc1cc(OC)c2c(c1)[C@@H](Cc1ccc(OC)c(OC)c1)OC2=O [Compound 6, 3R-(3,4-Dimethoxybenzyl)-5,7-dimethoxyphthalide]
- IC50 (yeast alpha-glucosidase): > 200 µM

Molecule: COc1cc(OC)c2c(c1)[C@H](Cc1cc(OC)c(OC)c(OC)c1)OC2=O [Compound 7, Marchatoside]
- IC50 (yeast alpha-glucosidase): > 200 µM

Molecule: CC1(C)CC[C@]2(C)CC[C@]3(C)C(=CCC4[C@@]5(C)CCC(=O)C(C)(C)C5CC[C@]43C)C2C1 (stereo partly drawn) [Compound 10, 12-Oleanene-3-one]
- IC50 (yeast alpha-glucosidase): 75.1 ± 1.8 µM

Molecule: C[C@@H]1CC[C@]2(C(=O)O)CC[C@]3(C)C(=CC(=O)C4[C@@]5(C)CCC(=O)C(C)(C)C5CC[C@]43C)C2[C@H]1C (stereo partly drawn) [Compound 11, 3,11-Dioxoursolic acid]
- IC50 (yeast alpha-glucosidase): 101 ± 3 µM

Molecule: C[C@H]1[C@H](C)CC[C@]2(C(=O)O)CC[C@]3(C)C(=CC[C@@H]4[C@@]5(C)CC[C@H](O)C(C)(C)[C@@H]5CC[C@]43C)[C@H]12 [Compound 12, Ursolic acid]
- IC50 (yeast alpha-glucosidase): 86 ± 6.9 µM

Molecule: Vitexilactone [Compound 9]
- IC50 (yeast alpha-glucosidase): > 200 µM
